Results: PubChem BioAssay (NCI)
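Results reflect a 48-hour exposure of cells in 96-well plates to compound at five concentrations. GI50 is the concentration that inhibits growth by half. TGI marks complete inhibition of growth.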

Key:
Test in all cases: NCI anticancer screen, dose series, 48 h
NCI-H23 lung = test system: NCI-H23 lung
NCI-H460 lung = test system: NCI-H460 lung
NCI-H522 lung = test system: NCI-H522 lung
NCI/ADR-RES ovarian = test system: NCI/ADR-RES ovarian
OVCAR-3 ovarian = test system: OVCAR-3 ovarian
OVCAR-4 ovarian = test system: OVCAR-4 ovarian
OVCAR-5 ovarian = test system: OVCAR-5 ovarian
OVCAR-8 ovarian = test system: OVCAR-8 ovarian
PC-3 prostate = test system: PC-3 prostate
RPMI-8226 leukemia = test system: RPMI-8226 leukemia
RXF 393 renal = test system: RXF 393 renal
SF-268 CNS = test system: SF-268 CNS
SF-295 CNS = test system: SF-295 CNS
SF-539 CNS = test system: SF-539 CNS
SK-MEL-2 melanoma = test system: SK-MEL-2 melanoma
SK-MEL-28 melanoma = test system: SK-MEL-28 melanoma
SK-MEL-5 melanoma = test system: SK-MEL-5 melanoma
SK-OV-3 ovarian = test system: SK-OV-3 ovarian
SN12C renal = test system: SN12C renal
SNB-19 CNS = test system: SNB-19 CNS
SNB-75 CNS = test system: SNB-75 CNS
SR leukemia = test system: SR leukemia
SW-620 colon = test system: SW-620 colon
T-47D breast = test system: T-47D breast
TK-10 renal = test system: TK-10 renal
U251 CNS = test system: U251 CNS
UACC-257 melanoma = test system: UACC-257 melanoma
UACC-62 melanoma = test system: UACC-62 melanoma
UO-31 renal = test system: UO-31 renal

CCN(CC)c1ccc(C2=NN(C(C)=O)C(c3cc(OC)c(OC)c(OC)c3)C2)cc1 (configuration not stated) was tested, and the TGI (NCI-H23 lung) was 17.4 µM, the GI50 (NCI-H460 lung) was 0.371 µM and the TGI (NCI-H460 lung) was 4.71 µM. The GI50 (NCI-H522 lung) was 0.307 µM, the TGI (NCI-H522 lung) was 2.84 µM and the GI50 (NCI/ADR-RES ovarian) was 0.247 µM. For the same compound, the TGI (NCI/ADR-RES ovarian) was 0.81 µM, the GI50 (OVCAR-3 ovarian) was 0.36 µM and the TGI (OVCAR-3 ovarian) was 11 µM. It also gave a GI50 (OVCAR-4 ovarian) of 0.583 µM, a TGI (OVCAR-4 ovarian) of 29.2 µM and a GI50 (OVCAR-5 ovarian) of 1.45 µM. For the same compound, the TGI (OVCAR-5 ovarian) was 15.3 µM, the GI50 (OVCAR-8 ovarian) was 0.795 µM and the TGI (OVCAR-8 ovarian) was 11.9 µM. The GI50 (PC-3 prostate) was 0.339 µM, the TGI (PC-3 prostate) was 12.2 µM and the GI50 (RPMI-8226 leukemia) was 0.18 µM. The TGI (RPMI-8226 leukemia) was 0.579 µM, the GI50 (RXF 393 renal) was 0.38 µM and the TGI (RXF 393 renal) was 2.43 µM. The GI50 (SF-268 CNS) was 0.867 µM, the TGI (SF-268 CNS) was 20.9 µM and the GI50 (SF-295 CNS) was 0.258 µM. It also gave a TGI (SF-295 CNS) of 1.46 µM, a GI50 (SF-539 CNS) of 0.283 µM and a TGI (SF-539 CNS) of 1.16 µM. The GI50 (SK-MEL-2 melanoma) was 2.37 µM, the TGI (SK-MEL-2 melanoma) was 26.1 µM and the GI50 (SK-MEL-28 melanoma) was 0.819 µM. For the same compound, the TGI (SK-MEL-28 melanoma) was 19.1 µM, the GI50 (SK-MEL-5 melanoma) was 0.378 µM and the TGI (SK-MEL-5 melanoma) was 5.05 µM. For the same compound, the GI50 (SK-OV-3 ovarian) was 0.41 µM, the TGI (SK-OV-3 ovarian) was 10.6 µM and the GI50 (SN12C renal) was 1.15 µM. For the same compound, the TGI (SN12C renal) was 16.2 µM, the GI50 (SNB-19 CNS) was 0.476 µM and the TGI (SNB-19 CNS) was 13.3 µM. For the same compound, the GI50 (SNB-75 CNS) was 0.233 µM, the TGI (SNB-75 CNS) was 3.59 µM and the GI50 (SR leukemia) was 0.0708 µM. For the same compound, the TGI (SR leukemia) was 0.685 µM, the GI50 (SW-620 colon) was 0.368 µM and the TGI (SW-620 colon) was 14.4 µM. For the same compound, the GI50 (T-47D breast) was 0.511 µM, the TGI (T-47D breast) was 22.6 µM and the GI50 (TK-10 renal) was 0.549 µM. The TGI (TK-10 renal) was 17 µM, the GI50 (U251 CNS) was 0.406 µM and the TGI (U251 CNS) was 11.5 µM. The GI50 (UACC-257 melanoma) was 16 µM, the TGI (UACC-257 melanoma) was 39.8 µM and the GI50 (UACC-62 melanoma) was 0.308 µM. It also gave a TGI (UACC-62 melanoma) of 13.6 µM, a GI50 (UO-31 renal) of 1.13 µM and a TGI (UO-31 renal) of 21 µM.
